The results in this text go back to patent publication US10246442B2, “4-Aminoquinazolin compounds as prolyl hydroxylase inhibitors” (JANSSEN PHARMACEUTICA NV, priority 2011, dated 2019).

One assay concerns the target PHD2181-417 (Homo sapiens (Human), UniProt Q9GZT9). Put plainly: PHD enzymatic assay ([14C]-succinic acid production). The conditions noted are these: purified PHD2181-417, HIF-1α peptide substrate, 30 min pre-incubation; average of results. The format is biochemical. In short, it runs like this: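 Recombinant human PHD2 (aa 181-417, E. coli-expressed, tags cleaved) with peptide substrate (10 μM) and [5-14C]-2-oxoglutarate in Tris pH 7.5 with catalase, DTT and ascorbate, 10 min reaction after 30 min compound pre-incubation; compounds at 100 μM final, 1% DMSO. [14C]-succinate separated by DNP precipitation and beta-counted; IC50 from three-parameter logistic fit.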

Assay [1] deals with Erythropoietin secretion, Hep-3B cells. Put plainly: Cellular assay: EPO secretion in Hep-3B cells. The format is cell-based. The conditions noted are these: Homo sapiens, Hep3B, 100 μM compound, 24 hours, percent of EPO secretion relative to assay control compound 7-[(4-Chloro-phenyl)-(5-methyl-isoxazol-3-ylamino)-methyl]-quinolin-8-ol, read-out: Cellular % EPO Stimulation. Put shortly: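 Compounds at 100 μM final were added to Hep-3B cells 24 h after plating and left for 24 h. Secreted EPO in supernatant measured by MSD electrochemiluminescence immunoassay. Reported as percent EPO secretion relative to an 8-hydroxyquinoline reference control compound.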

Chain of PHD2181-417 (Q9GZT9 181-417): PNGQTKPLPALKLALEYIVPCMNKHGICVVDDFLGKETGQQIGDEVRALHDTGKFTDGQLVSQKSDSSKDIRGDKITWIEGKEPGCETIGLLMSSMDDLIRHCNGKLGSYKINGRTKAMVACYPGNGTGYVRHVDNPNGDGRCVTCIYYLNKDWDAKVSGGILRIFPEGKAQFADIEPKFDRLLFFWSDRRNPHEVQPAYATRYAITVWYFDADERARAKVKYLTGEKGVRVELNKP

In the case of `CN1CCCN(c2nc(-n3cc(C(=O)O)cn3)nc3ccc(Oc4ccc(Cl)cc4)cc23)CC1` [Example 71, 1-(6-(4-Chlorophenoxy)-4-(4-methyl-1,4-diazepan-1-yl)quinazolin-2-yl)-1H-pyrazole-4-carboxylic acid], at PHD2181-417, the “Enzyme pIC50” value is reported as 6.7. Also, the activation at 100 µM in assay [1] was determined as 17%.
For `O=C(O)c1cnn(-c2nc(N3CCCC3)c3cc(Oc4ccccc4)ccc3n2)c1` [Example 73, 1-(6-Phenoxy-4-(pyrrolidin-1-yl)quinazolin-2-yl)-1H-pyrazole-4-carboxylic acid] the same measures were 7.2 and 36%.
For `O=C(O)c1cnn(-c2nc(NC3CC3)c3cc(Oc4ccccc4)ccc3n2)c1` [Example 75, 1-(4-(Cyclopropylamino)-6-phenoxyquinazolin-2-yl)-1H-pyrazole-4-carboxylic acid] the same measures were 6.8 and 20%.
As to `CN(C)c1nc(-n2cc(C(=O)O)cn2)nc2cc(Oc3ccccc3)ccc12` [Example 77, 1-(4-(Dimethylamino)-7-phenoxyquinazolin-2-yl)-1H-pyrazole-4-carboxylic acid], the “Enzyme pIC50” value on PHD2181-417 amounted to 7.4. Also, the activation at 100 µM in assay [1] was determined as 75%.
Consider `O=C(O)c1cnn(-c2nc(N3CCCCC3)c3ccc(Oc4ccccc4)cc3n2)c1` [Example 79, 1-(7-Phenoxy-4-(piperidin-1-yl)quinazolin-2-yl)-1H-pyrazole-4-carboxylic acid], for which the “Enzyme pIC50” value on PHD2181-417 is 7.0. In addition, the activation at 100 µM in assay [1] turned out to be 38%.
For `CCN(CC)c1nc(-n2cc(C(=O)O)cn2)nc2cc(Oc3ccccc3)ccc12` [Example 83, 1-(4-(Diethylamino)-7-phenoxyquinazolin-2-yl)-1H-pyrazole-4-carboxylic acid] the same measures were 7.7 and 25%.
The corresponding values for `O=C(O)c1cnn(-c2nc(N3CCOCC3)c3cc(OC4CCCCC4)c(F)cc3n2)c1` [Example 100, 1-(7-Fluoro-6-(cyclohexyloxy)-4-morpholinoquinazolin-2-yl)-1H-pyrazole-4-carboxylic acid] are 6.6 and 18%.
`CN(C)c1nc(-n2cc(C(=O)O)cn2)nc2cc(F)c(OC3CCCCC3)cc12` [Example 101, 1-(7-fluoro-6-(cyclohexyloxy)-4-(dimethylamino)quinazolin-2-yl)-1H-pyrazole-4-carboxylic acid]: the “Enzyme pIC50” value on PHD2181-417 was found to be 7.1. The activation at 100 µM in assay [1] came to 85%.
The corresponding values for `CCN(CC)c1nc(-n2cc(C(=O)O)cn2)nc2cc(F)c(OC3CCCCC3)cc12` [Example 102, 1-(6-(Cyclohexyloxy)-4-(diethylamino)-7-fluoroquinazolin-2-yl)-1H-pyrazole-4-carboxylic acid] are 7.5 and 37%.
Turning to `O=C(O)c1cnn(-c2nc(N3CCCC3)c3cc(OC4CCCCC4)c(F)cc3n2)c1` [Example 103, 1-(7-fluoro-6-(cyclohexyloxy)-4-(pyrrolidin-1-yl)quinazolin-2-yl)-1H-pyrazole-4-carboxylic acid], at PHD2181-417, the “Enzyme pIC50” value is recorded as 7.3. In addition, the activation at 100 µM in assay [1] came out at 31%.
Consider `CCN(C)c1nc(-n2cc(C(=O)O)cn2)nc2cc(F)c(OC3CCCCC3)cc12` [Example 104, 1-(7-fluoro-6-(cyclohexyloxy)-4-(ethyl(methyl)amino)quinazolin-2-yl)-1H-pyrazole-4-carboxylic acid], for which, on PHD2181-417, the “Enzyme pIC50” value is reported as 7.1. Besides, the activation at 100 µM in assay [1] turned out to be 49%.
Turning to `O=C(O)c1cnn(-c2nc(NC3CC3)c3cc(OC4CCCCC4)c(F)cc3n2)c1` [Example 105, 1-(7-fluoro-6-(cyclohexyloxy)-4-(cyclopropylamino)quinazolin-2-yl)-1H-pyrazole-4-carboxylic acid], at PHD2181-417, the “Enzyme pIC50” value was 7.2. In assay [1], the activation at 100 µM turned out to be 29%.
Regarding `O=C(O)c1cnn(-c2nc(N3CCOCC3)c3cc(OC4CCCCC4)c(Cl)cc3n2)c1` [Example 136, 1-(7-chloro-6-(cyclohexyloxy)-4-morpholinoquinazolin-2-yl)-1H-pyrazole-4-carboxylic acid], the “Enzyme pIC50” value at PHD2181-417 turned out to be 6.7. For the same compound, the activation at 100 µM in assay [1] is 33%.
In the case of `CN(C)c1nc(-n2cc(C(=O)O)cn2)nc2cc(Cl)c(OC3CCCCC3)cc12` [Example 137, 1-(7-chloro-6-(cyclohexyloxy)-4-(dimethylamino)quinazolin-2-yl)-1H-pyrazole-4-carboxylic acid], the “Enzyme pIC50” value on PHD2181-417 was 7.4. Moreover, the activation at 100 µM in assay [1] is 32%.
As to `CCN(C)c1nc(-n2cc(C(=O)O)cn2)nc2cc(Cl)c(OC3CCCCC3)cc12` [Example 140, 1-(7-chloro-6-(cyclohexyloxy)-4-(ethyl(methyl)amino)quinazolin-2-yl)-1H-pyrazole-4-carboxylic acid], the “Enzyme pIC50” value on PHD2181-417 is reported as 7.2. Besides, in assay [1], the activation at 100 µM stood at 29%.
As for `CC(C)c1cc2c(N3CCOCC3)nc(-n3cc(C(=O)O)cn3)nc2cc1Cl` [Example 160, 1-(7-chloro-6-isopropyl-4-morpholinoquinazolin-2-yl)-1H-pyrazole-4-carboxylic acid], at PHD2181-417, the “Enzyme pIC50” value is on record as 6.8. For the same compound, the activation at 100 µM in assay [1] stood at 28%.
For the compound `CC(C)c1cc2c(N(C)C)nc(-n3cc(C(=O)O)cn3)nc2cc1Cl` [Example 161, 1-(7-chloro-4-(dimethylamino)-6-isopropylquinazolin-2-yl)-1H-pyrazole-4-carboxylic acid], the “Enzyme pIC50” value on PHD2181-417 is 7.4. Also, the activation at 100 µM in assay [1] was determined as 32%.
Turning to `CCN(CC)c1nc(-n2cc(C(=O)O)cn2)nc2cc(Cl)c(C(C)C)cc12` [Example 162, 1-(7-chloro-4-diethylamino-6-isopropylquinazolin-2-yl)-1H-pyrazole-4-carboxylic acid], the “Enzyme pIC50” value at PHD2181-417 stood at 7.2. In assay [1], the activation at 100 µM turned out to be 40%.
Consider `CC(C)c1cc2c(N3CCCC3)nc(-n3cc(C(=O)O)cn3)nc2cc1Cl` [Example 163, 1-(7-chloro-4-(pyrrolidin-1-yl)-6-isopropylquinazolin-2-yl)-1H-pyrazole-4-carboxylic acid], for which the “Enzyme pIC50” value at PHD2181-417 is reported as 7.3. In addition, the activation at 100 µM in assay [1] turned out to be 26%.
Regarding `CCN(C)c1nc(-n2cc(C(=O)O)cn2)nc2cc(Cl)c(C(C)C)cc12` [Example 164, 1-(7-chloro-4-(ethyl(methyl)amino)-6-isopropylquinazolin-2-yl)-1H-pyrazole-4-carboxylic acid], at PHD2181-417, the “Enzyme pIC50” value amounted to 7.4. For the same compound, the activation at 100 µM in assay [1] was determined as 57%.
Regarding `CC(C)c1cc2c(NC3CC3)nc(-n3cc(C(=O)O)cn3)nc2cc1Cl` [Example 165, 1-(7-chloro-4-(cyclopropylamino)-6-isopropylquinazolin-2-yl)-1H-pyrazole-4-carboxylic acid], the “Enzyme pIC50” value on PHD2181-417 is recorded as 7.0. For the same compound, in assay [1], the activation at 100 µM came to 24%.
The corresponding values for `O=C(O)c1cnn(-c2nc(N3CCOCC3)c3cc(OC4CCCCC4)ccc3n2)c1` [Example 172, 1-(6-(cyclohexyloxy)-4-morpholinoquinazolin-2-yl)-1H-pyrazole-4-carboxylic acid] are 6.4 and 18%.
For the compound `CN(C)c1nc(-n2cc(C(=O)O)cn2)nc2ccc(OC3CCCCC3)cc12` [Example 173, 1-(6-(cyclohexyloxy)-4-(dimethylamino)quinazolin-2-yl)-1H-pyrazole-4-carboxylic acid], on PHD2181-417, the “Enzyme pIC50” value amounted to 7.4. The activation at 100 µM in assay [1] came to 62%.
Take `O=C(O)c1cnn(-c2nc(NC3CC3)c3cc(OC4CCCCC4)ccc3n2)c1` [Example 176, 1-(6-(cyclohexyloxy)-4-(cyclopropylamino)quinazolin-2-yl)-1H-pyrazole-4-carboxylic acid]: the “Enzyme pIC50” value at PHD2181-417 worked out at 6.8. In addition, the activation at 100 µM in assay [1] came out at 35%.
Consider `CCN(C)c1nc(-n2cc(C(=O)O)cn2)nc2ccc(OC3CCCCC3)cc12` [Example 177, 1-(6-(cyclohexyloxy)-4-(ethyl(methyl)amino)quinazolin-2-yl)-1H-pyrazole-4-carboxylic acid], for which, at PHD2181-417, the “Enzyme pIC50” value is recorded as 7.3. In addition, the activation at 100 µM in assay [1] was 56%.
As to `CC(C)c1ccc2nc(-n3cc(C(=O)O)cn3)nc(N3CCOCC3)c2c1` [Example 184, 1-(4-(morpholino)-6-isopropylquinazolin-2-yl)-1H-pyrazole-4-carboxylic acid], the “Enzyme pIC50” value on PHD2181-417 worked out at 5.7. The activation at 100 µM in assay [1] is 24%.
For `CC(C)c1ccc2nc(-n3cc(C(=O)O)cn3)nc(N(C)C)c2c1` [Example 185, 1-(4-(dimethylamino)-6-isopropylquinazolin-2-yl)-1H-pyrazole-4-carboxylic acid] the same measures were 7.0 and 62%.
In the case of `CCN(CC)c1nc(-n2cc(C(=O)O)cn2)nc2ccc(C(C)C)cc12` [Example 186, 1-(4-(diethylamino)-6-isopropylquinazolin-2-yl)-1H-pyrazole-4-carboxylic acid], the “Enzyme pIC50” value on PHD2181-417 came to 7.0. The activation at 100 µM in assay [1] is 43%.
With `CC(C)c1ccc2nc(-n3cc(C(=O)O)cn3)nc(N3CCCC3)c2c1` [Example 187, 1-(6-isopropyl-4-(pyrrolidin-1-yl)quinazolin-2-yl)-1H-pyrazole-4-carboxylic acid], the “Enzyme pIC50” value at PHD2181-417 turned out to be 6.8. Also, in assay [1], the activation at 100 µM is 28%.
On to `CC(C)c1ccc2nc(-n3cc(C(=O)O)cn3)nc(NC3CC3)c2c1` [Example 188, 1-(4-(cyclopropylamino)-6-isopropylquinazolin-2-yl)-1H-pyrazole-4-carboxylic acid], for which the “Enzyme pIC50” value at PHD2181-417 is recorded as 6.0. The activation at 100 µM in assay [1] was 35%.
